Test results: patent US9073854B2, “Aromatic sulfonium salt compound” (ADEKA CORPORATION, priority 2009, dated 2015)

Assay: Solubility in polyvinylphenol/tetramethylammonium hydroxide (TMAH) aqueous solution
Format: physicochemical
Settings: mass ratio of compound to polyvinylphenol of the saturated solution; polyvinylphenol in 3% TMAH aqueous solution
Procedure: In a screw-top tube were put 0.36 g of polyvinylphenol (S-2P from Maruzen Petrochemical Co., Ltd.; Mw: 5800) and 10.00 g of a 3% TMAH aqueous solution and heated to dissolve. A 2.00 g portion of the resulting solution was put in another screw-top tube, and a small amount of each of compound Nos. 1 and 5 and comparative compound No. 1 (intermediate No. 7 obtained in step 1 of Example 1-7) was added thereto and heated. A visual check was made to see whether the compound dissolved. This operation was repeated until saturation. The saturated solution was allowed to stand one day to make sure that no solid precipitated. The mass ratio of each compound to the polyvinylphenol of the saturated solution was taken as a parameter of solubility.

Row | SMILES | Solubility (%)
1 | Cn1c2ccccc2c(=O)c2cc([S+](c3ccc(F)cc3)c3ccc(F)cc3)ccc21 [Comp. Compound No. 1, reference compound] | < 1%
2 | Cn1c2ccccc2c(=O)c2cc([S+](c3ccc(O)cc3)c3ccc(O)cc3)ccc21 [Compound No. 1] | 70%
3 | O=c1c2ccccc2n(Cc2cccc(O)c2)c2ccc([S+](c3ccc(F)cc3)c3ccc(F)cc3)cc12 [Compound No. 5] | 29%
